According to ChEMBL document CHEMBL4152191, “New potent and selective A1 adenosine receptor antagonists as potential tools for the treatment of gastrointestinal diseases” (Eur J Med Chem, 2018):
pIC50, pKi: −log10 of the molar value. Activity calls are given as the source filed them. The calls are words filed in the database; no cut-off is given here.

Key:
Adenosine receptor A2b = biological target: T1, Adenosine receptor A2b (Homo sapiens, UniProt P29275); assay: Antagonist activity at recombinant human adenosine A2B receptor expressed in CHO cells assessed as inhibition of NECA-induced adenylyl cyclase activity after 20 mins by [alpha-32P]ATP assay; type: functional, cell-based
T1 sequence (P29275 whole entry): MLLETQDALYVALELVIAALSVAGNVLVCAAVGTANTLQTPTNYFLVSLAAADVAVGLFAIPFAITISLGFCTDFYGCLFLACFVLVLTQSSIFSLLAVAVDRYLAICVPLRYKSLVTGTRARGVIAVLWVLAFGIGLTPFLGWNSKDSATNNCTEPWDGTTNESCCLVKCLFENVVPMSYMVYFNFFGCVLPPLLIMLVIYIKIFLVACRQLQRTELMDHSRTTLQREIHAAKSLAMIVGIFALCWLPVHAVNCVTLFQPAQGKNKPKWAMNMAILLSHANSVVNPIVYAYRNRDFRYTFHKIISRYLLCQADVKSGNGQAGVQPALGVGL

[1] = biological target: Adenosine receptors; A1 & A3 (Homo sapiens) (UniProt P30542+P0DMS8); assay: Selectivity index, ratio of Ki for recombinant human adenosine A3 receptor to Ki for recombinant human adenosine A1 receptor
Adenosine receptor A3 = biological target: T2, Adenosine receptor A3 (Homo sapiens, UniProt P0DMS8); assay: Displacement of [3H]NECA from recombinant human adenosine A3 receptor transfected in CHO cell membranes after 3 hrs by microbeta scintillation counting analysis
T2 sequence (P0DMS8 whole entry): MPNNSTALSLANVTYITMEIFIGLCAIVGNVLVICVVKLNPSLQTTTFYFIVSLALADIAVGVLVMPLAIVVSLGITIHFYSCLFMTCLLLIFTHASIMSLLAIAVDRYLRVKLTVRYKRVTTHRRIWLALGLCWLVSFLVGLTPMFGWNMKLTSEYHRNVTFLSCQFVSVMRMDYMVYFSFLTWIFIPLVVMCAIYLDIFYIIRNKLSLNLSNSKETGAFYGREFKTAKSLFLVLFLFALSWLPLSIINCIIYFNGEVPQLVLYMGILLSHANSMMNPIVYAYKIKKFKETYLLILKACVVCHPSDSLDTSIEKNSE

Adenosine receptor A1 [2] = biological target: T3, Adenosine receptor A1 (Homo sapiens, UniProt P30542); assay: Displacement of [3H]CCPA from recombinant human adenosine A1 receptor transfected in CHO cell membranes after 3 hrs by microbeta scintillation counting analysis
T3 sequence (P30542 whole entry): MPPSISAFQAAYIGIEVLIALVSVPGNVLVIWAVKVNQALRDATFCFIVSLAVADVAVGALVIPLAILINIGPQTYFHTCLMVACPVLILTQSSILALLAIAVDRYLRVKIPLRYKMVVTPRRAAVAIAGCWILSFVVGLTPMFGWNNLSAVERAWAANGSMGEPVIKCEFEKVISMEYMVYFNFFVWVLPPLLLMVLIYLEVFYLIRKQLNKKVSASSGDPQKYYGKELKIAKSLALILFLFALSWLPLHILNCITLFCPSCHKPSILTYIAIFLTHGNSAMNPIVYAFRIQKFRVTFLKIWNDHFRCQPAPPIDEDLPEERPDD

Adenosine receptor A2a = Adenosine receptor A2a (Homo sapiens, UniProt P29274); assay: Displacement of [3H]NECA from recombinant human adenosine A2A receptor transfected in CHO cell membranes after 3 hrs by microbeta scintillation counting analysis
Homo sapiens [3] = organism: Homo sapiens; assay: Selectivity index, ratio of Ki for recombinant human adenosine A2A receptor to Ki for recombinant human adenosine A1 receptor
Homo sapiens [4] = organism: Homo sapiens; assay: Selectivity index, ratio of Ki for recombinant human adenosine A2B receptor to Ki for recombinant human adenosine A1 receptor
[5] = biological target: T4, Adenosine receptor A1 (Mus musculus) (UniProt Q60612); assay: Activity at adenosine A1 receptor in BALB/C mouse ileum assessed as effect on amplitude of rhythmic spontaneous contractions at 1 uM after 1 hr; type: functional
T4 sequence (whole entry): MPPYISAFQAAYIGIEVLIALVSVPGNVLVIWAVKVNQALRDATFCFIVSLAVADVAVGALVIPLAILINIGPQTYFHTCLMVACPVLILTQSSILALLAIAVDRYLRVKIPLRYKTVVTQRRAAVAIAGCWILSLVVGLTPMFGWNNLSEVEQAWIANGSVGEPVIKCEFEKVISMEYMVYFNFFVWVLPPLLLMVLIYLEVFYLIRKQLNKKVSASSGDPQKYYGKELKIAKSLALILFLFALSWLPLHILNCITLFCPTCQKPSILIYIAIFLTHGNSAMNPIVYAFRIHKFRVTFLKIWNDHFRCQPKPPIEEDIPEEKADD

Adenosine receptor A1 [6] = biological target: T3, Adenosine receptor A1; assay: Antagonist activity at recombinant human adenosine A1 receptor transfected in CHO cells assessed as inhibition of CCPA-induced cAMP accumulation preincubated for 10 mins followed by CCPA addition by GloSensor cAMP assay; type: functional, cell-based
[7] = biological target: T4, Adenosine receptor A1 (Mus musculus); assay: Activity at adenosine A1 receptor in BALB/C mouse ileum assessed as effect on frequency of rhythmic spontaneous contractions at 1 uM after 1 hr; type: functional
[8] = biological target: T4, Adenosine receptor A1 (Mus musculus); assay: Antagonist activity at adenosine A1 receptor in BALB/C mouse ileum assessed as reversal of CCPA-induced reduction in rhythmic spontaneous contractions at 1 uM after 1 hr; type: functional
[9] = biological target: T4, Adenosine receptor A1 (Mus musculus); assay: Reversible antagonist activity at adenosine A1 receptor in BALB/C mouse ileum assessed as reversal of CCPA-induced reduction in rhythmic spontaneous contractions at 1 uM incubated for 1 hr measured after compound wash out; type: functional
[10] = biological target: T4, Adenosine receptor A1 (Mus musculus); assay: Antagonist activity at adenosine A1 receptor in BALB/C mouse ileum assessed as reversal of 0.1 uM CCPA-induced reduction in rhythmic spontaneous contractions by measuring tissue response at 1 uM after 1 hr (reference value: 65%); type: functional; design: scale not given: the % may be the effect or the level left
[11] = biological target: T4, Adenosine receptor A1 (Mus musculus); assay: Antagonist activity at adenosine A1 receptor in BALB/C mouse ileum assessed as reversal of 1 uM CCPA-induced reduction in rhythmic spontaneous contractions by measuring tissue response at 1 uM after 1 hr (reference value: 20%); type: functional; design: scale not given: the % may be the effect or the level left

Adenosine receptor A2a, sequence (P29274 whole entry): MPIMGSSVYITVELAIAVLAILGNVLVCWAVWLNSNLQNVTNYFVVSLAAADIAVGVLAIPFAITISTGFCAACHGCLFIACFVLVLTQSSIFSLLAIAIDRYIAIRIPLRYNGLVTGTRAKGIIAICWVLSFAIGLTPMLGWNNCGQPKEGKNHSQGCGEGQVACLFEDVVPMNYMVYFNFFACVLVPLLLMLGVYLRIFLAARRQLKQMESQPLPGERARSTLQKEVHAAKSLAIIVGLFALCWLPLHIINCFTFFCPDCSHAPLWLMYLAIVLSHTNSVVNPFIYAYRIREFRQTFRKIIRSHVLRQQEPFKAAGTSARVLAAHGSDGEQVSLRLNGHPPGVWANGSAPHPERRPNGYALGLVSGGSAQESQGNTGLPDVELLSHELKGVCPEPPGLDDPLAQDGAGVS

| Structure (SMILES) | pKi (Adenosine receptor A2b) | Ratio Ki [1] | pKi (Adenosine receptor A3) | pKi (Adenosine receptor A1 [2]) | pKi (Adenosine receptor A2a) | Ratio Ki (Homo sapiens [3]) | Ratio Ki (Homo sapiens [4]) | Activity [5] | pIC50 (Adenosine receptor A1 [6]) | Activity [7] | Kb [8] [nM] | inhibition [9] | Activity [10] [%] | Activity [11] [%] |
| --- | --- | --- | --- | --- | --- | --- | --- | --- | --- | --- | --- | --- | --- | --- |
| CCn1c(-c2ccccc2)nc2c(NC3CCCCC3)ncnc21 | 5.04 | 71 | 6.15 | 8.00 | 6.51 | 31 | 902 | – | – | – | – | – | – | – |
| CCn1c(-c2ccccc2)nc2c(N)ncnc21 | 5.52 | 186 | 5.24 | 7.51 | 6.67 | 7 | 97 | – | – | – | – | – | – | – |
| CCCn1c(-c2ccccc2)nc2c(NC3CCCCC3)ncnc21 | 5.27 | 87 | 5.63 | 7.57 | 5.97 | 39 | 197 | – | – | – | – | – | – | – |
| CCCn1c(-c2ccccc2)nc2c(NC3CCOC3)ncnc21 (stereo not given) | 5.04 | 112 | 5.55 | 7.60 | 5.77 | 68 | 363 | – | – | – | – | – | – | – |
| Cn1c(-c2cccnc2)nc2c(NC3CCCC3)ncnc21 | < 4.52 | 45 | 4.96 | 6.62 | 5.20 | 26 | > 124 | – | – | – | – | – | – | – |
| Cn1c(-c2ccc(Cl)cc2)nc2c(NC3CCCC3)ncnc21 | < 4.52 | 67 | 5.92 | 7.74 | 5.74 | 101 | > 1670 | – | – | – | – | – | – | – |
| Cn1c(-c2ccccc2)nc2c(NC3CCOC3)ncnc21 (stereo not given) | 4.88 | 783 | 5.20 | 8.10 | 5.74 | 229 | 1660 | – | – | – | – | – | – | – |
| Cn1c(-c2ccccc2)nc2c(NC3CCC3)ncnc21 | 5.43 | 88 | 6.55 | 8.49 | 6.52 | 95 | 1170 | – | – | – | – | – | – | – |
| Cn1c(-c2ccccc2Cl)nc2c(NC3CCCC3)ncnc21 | < 4.52 | 19 | 6.14 | 7.43 | 5.51 | 83 | > 811 | – | – | – | – | – | – | – |
| Cc1ccccc1-c1nc2c(NC3CCCC3)ncnc2n1C | < 4.52 | 55 | 5.52 | 7.26 | 5.16 | 127 | > 545 | – | – | – | – | – | – | – |
| Cn1c(-c2ccccc2)nc2c(N)ncnc21 | 5.11 | 609 | 4.85 | 7.64 | 6.42 | 17 | 339 | – | – | – | – | – | – | – |
| CCn1c(-c2ccccc2)nc2c(NC3CCCC3)ncnc21 | 5.24 | 91 | 6.45 | 8.41 | 6.48 | 86 | 1480 | – | – | – | – | – | – | – |
| Cn1c(-c2ccc(C(=O)O)cc2)nc2c(NC3CCCC3)ncnc21 | < 4.52 | 0.5 | 4.59 | 4.27 | < 4.00 | > 1.9 | > 0.6 | – | – | – | – | – | – | – |
| CCCn1c(-c2ccccc2)nc2c(NC3CCC3)ncnc21 | 6.11 | 18 | 6.58 | 7.82 | 6.44 | 24 | 52 | – | – | – | – | – | – | – |
| CCCn1c(-c2ccccc2)nc2c(N)ncnc21 | 5.98 | 92 | 5.03 | 7.00 | 6.31 | 5 | 10 | – | – | – | – | – | – | – |
| Cc1ccc(-c2nc3c(NC4CCCC4)ncnc3n2C)cc1 | < 4.52 | 60 | 6.32 | 8.10 | 5.74 | 225 | > 3750 | inactive | 7.21 | inactive | 177 | – | – | – |
| Cn1c(-c2cccc(Cl)c2)nc2c(NC3CCCC3)ncnc21 | 5.60 | 79 | 6.29 | 8.19 | 6.57 | 41 | 389 | – | – | – | – | – | – | – |
| Cc1cccc(-c2nc3c(NC4CCCC4)ncnc3n2C)c1 | 5.22 | 82 | 6.29 | 8.21 | 6.35 | 73 | 973 | inactive | 7.37 | inactive | 33 | – | – | – |
| CCn1c(-c2ccccc2)nc2c(NC3CCC3)ncnc21 | 5.84 | 14 | 7.08 | 8.22 | 6.42 | 63 | 240 | – | – | – | – | – | – | – |
| COc1ccc(-c2nc3c(NC4CCCC4)ncnc3n2C)cc1 | < 4.52 | 25 | 5.73 | 7.12 | 5.75 | 24 | > 400 | – | – | – | – | – | – | – |
| CCCn1c(-c2ccccc2)nc2c(NC3CCCC3)ncnc21 | 5.46 | 75 | 6.13 | 8.00 | 6.20 | 63 | 343 | – | – | – | – | – | – | – |
| Cn1c(-c2ccc(O)cc2)nc2c(NC3CCCC3)ncnc21 | 4.75 | 31 | 6.28 | 7.77 | 6.27 | 31 | 1050 | inactive | 7.28 | inactive | 66 | – | – | – |
| Cn1c(-c2ccccc2)nc2c(NC3CCCC3)ncnc21 | 5.07 | 302 | 6.07 | 8.55 | 6.30 | 178 | 3040 | inactive | 7.85 | inactive | 17 | Active | 100 | 75 |
| CCn1c(-c2ccccc2)nc2c(NC3CCOC3)ncnc21 (stereo not given) | 4.94 | 166 | 5.78 | 8.00 | 5.99 | 102 | 1150 | – | – | – | – | – | – | – |
| Cn1c(-c2ccccc2)nc2c(NC3CCCCC3)ncnc21 | < 4.52 | 416 | 5.63 | 8.24 | 6.28 | 92 | > 5260 | – | – | – | – | – | – | – |
| Cn1c(-c2ccc(F)cc2)nc2c(NC3CCCC3)ncnc21 | < 4.52 | 184 | 5.94 | 8.21 | 5.62 | 387 | > 4840 | inactive | 7.49 | inactive | 43 | – | – | – |
